Where two headings read alike, the source gives them in different places.
Columns and labels:
[1] = system: tomato yellow leaf curl disease (TYLCV); assay: Control test on tomato yellow leaf curl disease (TYLCV) (soil drench test); format: in vivo, tomato yellow leaf curl virus; details: for phytotoxicity: tomato (cultivar: Sekai-ichi)
Protocol: Granules containing 3% of tolprocarb (a) (trade name; Sanblas (registered trademark) granules (manufactured by Mitsui Chemical Agro Co., Ltd.)), granules containing 5% of pyroquilon (b) (trade name; Coratop (registered trademark) granules (manufactured by Syngenta Japan Ltd.)) and granules containing 1% of dinotefran (trade name; Starkle (registered trademark) granules (manufactured by Mitsui Chemicals Agro Co., Ltd.)) were respectively treated or were treated in combination to plant foot of tomato in a predetermined amount. Seven days after chemical agent treatment, the plants were inoculated by sucking of one adult of TYLCV-carrying tobacco whitefly biotype Q per plant for 3 days. Thereafter, the inoculated plants were put in the greenhouse to promote infection, and the control effect was examined after the infection. The infection was examined by the degree of infection, and the disease severity index was calculated based on the degree of infection. The control value was calculated from the disease severity index.
1: observation of initial infection (delayed infection)
2: observation of infection Severity index=((the number of plants of infection index 0×0)+(the number of plants of infection index 1×1)+(the number of plants of infection index 2×2)/(the number of plants examined×2))×100
(§1) The synergistic effect was calculated from the following Colby's equation. Synergistic effect (expected value)=(control value of compound A+control value of compound B)−(control value of compound A×control value of compound B)/100
(§2) When the control value exceeded the expected value in the case of mixing the compounds and applying the mixed product, it was determined that there was a synergistic effect.

Rice Streak Virus (RSV) = assay: Control test on rice streak virus (RSV) (field trial of nursery box application); format: in vivo, rice stripe virus
Protocol: Rice seedlings (cultivar: Hinohikari) were grown in a greenhouse according to an ordinary procedure and transplanted to an open paddy field. Granules containing 4% of tolprocarb (a) and granules containing 6% of dinotefuran (insecticidal ingredient) formulated according to Formulation Example 2 were respectively treated or were treated in combination in 50 g per box in a nursery box on the day of transplantation. 35 days after transplantation, larvae of RSV-carrying small brown planthopper were released for one week to inoculate rice plants by sucking. At 79 days and 99 days after transplantation, the presence or absence of the unshooting of head was examined.

[2] = system: cucumber mosaic virus (CMV); details: for Number of CMV Infected Plants: Acute wilt / Number of CMV Infected Plants: Mosaic / Number of CMV Infected Plants: No Infection: 5 plants; for Number of CMV Infected Plants: Acute wilt / Number of CMV Infected Plants: Mosaic / Number of CMV Infected Plants: No Infection / Control value / Disease Severity index: drench 3 days before inoculation, g ai/10a: (a) 90, (b) 150, dinotefuran 120, thiamethoxam 60, (h) 250, mixtures 90 + 120 and 150 + 60; for phytotoxicity: cucumber (cultivar: Sagami-hanjiro)
[3] = system: Chinese cabbage soft rot bacteria (Erwinia carotovora subsp. carotovora); assay: Control test on Chinese cabbage soft rot (soil incorporation test); format: in vivo; details: for phytotoxicity: Chinese cabbage plant (cultivar: Muso)
Text: Granules containing 3% of tolprocarb (a) (trade name; Sanblas (registered trademark) granules (manufactured by Mitsui Chemical Agro Co., Ltd.)), granules containing 5% of pyroquilon (b) (trade name; Coratop (registered trademark) granules (manufactured by Mitsui Chemical Agro Co., Ltd.)), granules containing 1.5% of simeconazole (fungicidal component) (trade name; Mongalite (registered trademark) granules (manufactured by Mitsui Chemical Agro Co., Ltd.)) and flowable containing 20% of penthiopyrad (fungicidal component) were respectively incorporated or were incorporated in combination into a pot soil in a predetermined amount. Then, the Chinese cabbage was planted in the pot soil. At 14 days after chemical agent treatment, the Chinese cabbage soft rot was inoculated. […] Thereafter, the inoculated plantes were put in a 25° C. greenhouse to promote infection for 2 days, and the control effect was examined. The infection was examined by the degree of infection, and the disease severity index was calculated based on the degree of infection. The control value was calculated from the disease severity index.
Severity index=((the number of leaves of infection index 0×0)+(the number of leaves of infection index 1×1)+(the number of leaves of infection index 2×2)+(the number of leaves of infection index 3×3)/(the number of leaves examined×3)×100
as §1, §2

[4] = system: cucumber mosaic virus (CMV)
[5] = system: tomato powdery mildew (Oidium neolycopersici); assay: Control test on tomato powdery mildew (soil incorporation test); format: in vivo
Protocol: A tomato powdery mildew control test was performed in a greenhouse. A plastic pots having a diameter of 20 cm were used for the test. As test chemical agents, granules containing 3% of tolprocarb (compound (a)) (trade name; Sanblas (registered trademark) granules (Mitsui Chemical Agro Inc.)) commercially available and granules containing 5% of pyroquilon (compound (b)) (trade name: Coratop (registered trademark) granules (manufactured by Syngenta Japan Co., Ltd.)) were mixed to soil on the entire surface of the pot in an amount equivalent to 3 kg/10a. Also, the simplified emulsifiable concentrate E(c) containing the compound (c) was suspended in the distilled water, and was irrigated onto the entire surface of the pot to be incorporated. As the comparative example, granules (trade name: Oryzemate (registered trademark) granules (Meiji Seika Pharma Co., Ltd.)) containing 8% of probenazole (comparative compound (h)) was mixed to soil on the entire surface of the pot in an amount equivalent to 3 kg/10a. Tomato (cultivar: Ohgata-fukuju) grown up to 4-leaf stage of true leaf was planted in a plastic pots having a diameter of 20 cm and were treated with chemical agents. Plants were grown in a glass greenhouse and naturally occurring tomato powdery mildew (Oidium neolycopersici) was examined one month after chemical agent treatment. In the examination, an infection index of six leaves per pot was examined to calculate disease severity index. The control value was calculated from the disease severity index.
The criteria for the degree of infection are as follows.
1: lesion area rate of less than 5%
2: lesion area rate from 5% to 25%
3: lesion area rate from 25% to 50%
The severity index was calculated from the following equation. Severity index=((the number of compound leaves of infection index 0×0)+(the number of compound leaves of infection index 1×1)+(the number of compound leaves of infection index 2×2)+(the number of compound leaves of infection index 3×3)+(the number of compound leaves of infection index 4×4/(the number of compound leaves examined×4))×100

[6] = 250 g ai/10a, drench 1 day before inoculation
[7] = 250 g ai/10a, drench 1 day before inoculation, 3 checked
[8] = Total of plots, g ai/10a: (a) 90, (b) 150, (c) 90, (h) 240
[9] = Total, one month after treatment, g ai/10a: (a) 90, (b) 150, (c) 90, (h) 240
[10] = plot I, g ai/10a: (a) 90, (b) 150, (c) 90, (h) 240
[11] = plot II, g ai/10a: (a) 90, (b) 150, (c) 90, (h) 240
[12] = plot III, g ai/10a: (a) 90, (b) 150, (c) 90, (h) 240

Structure (SMILES): CN/C(=N/CC1CCOC1)N[N+](=O)[O-] (stereo not shown) [Dinotefuran, dinotefuran]
- phytotoxicity [1]: not observed
- control effect on the rice stripe blight (RSV) (in words) (Rice Streak Virus (RSV); nursery box application): effect of delaying the occurrence of the unshooting of head
- phytotoxicity (Rice Streak Virus (RSV); rice (cultivar: Hinohikari)): not observed
- Number of CMV Infected Plants: Acute wilt [2]: 2
- Number of CMV Infected Plants: Mosaic [2]: 2
- Number of CMV Infected Plants: No Infection [2]: 1
- phytotoxicity [2]: not observed
- Control value [2]: 33.3
- Disease Severity index [2]: 60.0

Structure (SMILES): CC(C)CC(C)c1sccc1NC(=O)c1cn(C)nc1C(F)(F)F (stereo not shown) [penthiopyrad, reference compound]
- phytotoxicity [3]: not observed

Structure (SMILES): O=C1CCc2cccc3c2N1CC3 [Pyroquilon (b), pyroquilon]
- phytotoxicity [1]: not observed
- control effect on tomato yellow leaf curl disease (TYLCV) (in words) ([1]; treatment on 7 day before inoculation): excellent control effect
- phytotoxicity [3]: not observed
- control effect on the Chinese cabbage soft rot (in words) ([3]; whole soil incorporation at the time of planting): excellent control effect
- Number of CMV Infected Plants: Acute wilt [2]: 0
- Number of CMV Infected Plants: Mosaic [2]: 4
- Number of CMV Infected Plants: No Infection [2]: 1
- phytotoxicity [2]: not observed
- Control value [2]: 55.6
- Disease Severity index [2]: 40.0
- control effect on cucumber mosaic virus (CMV) (in words) ([2]; treatment on 3 day before inoculation): excellent control effect

Structure (SMILES): CSC(=O)c1cccc2nnsc12 [Acibenzolar-S-methyl (i), acibenzolar S methyl, reference compound]
- Control value [4, 6]: 50.0
- Disease Severity index [4, 6]: 50.0
- Number of CMV Infected Leaves: Acute wilt [4, 7]: 0
- Number of CMV Infected Leaves: Mosaic [4, 7]: 3
- Number of CMV Infected Leaves: No Infection [4, 7]: 0
- phytotoxicity ([4]; cucumber (cultivar: Sagami-hanjiro)): not observed

Structure (SMILES): CN1COCN(Cc2cnc(Cl)s2)/C1=N\[N+](=O)[O-] [Thiamethoxam, thiamethoxam]
- Number of CMV Infected Plants: Acute wilt [2]: 1
- Number of CMV Infected Plants: Mosaic [2]: 3
- Number of CMV Infected Plants: No Infection [2]: 1
- phytotoxicity [2]: not observed
- Control value [2]: 44.4
- Disease Severity index [2]: 50.0

Structure (SMILES): C=CCOC1=NS(=O)(=O)c2ccccc21 [Probenazole (h), probenazole]
- Number of CMV Infected Plants: Acute wilt [2]: 0
- Number of CMV Infected Plants: Mosaic [2]: 2
- Number of CMV Infected Plants: No Infection [2]: 3
- phytotoxicity [2]: not observed
- Control value [2]: 77.8
- Disease Severity index [2]: 20.0

Structure (SMILES): Cc1cccc2sc3nncn3c12 [Tricyclazole (c), tricyclazole]
- Infection index 0 (number of leaves) [5, 8]: 8
- Infection index 1 (number of leaves) [5, 8]: 8
- Infection index 2 (number of leaves) [5, 8]: 2
- Infection index 3 (number of leaves) [5, 8]: 0
- Infection index 4 (number of leaves) [5, 8]: 0
- Control value [5, 9]: 66.7
- Disease Severity index [5, 9]: 16.7
- Infection index 0 (number of leaves) [5, 10]: 0
- Infection index 1 (number of leaves) [5, 10]: 5
- Infection index 2 (number of leaves) [5, 10]: 1
- Infection index 3 (number of leaves) [5, 10]: 0
- Infection index 4 (number of leaves) [5, 10]: 0
- Infection index 0 (number of leaves) [5, 11]: 5
- Infection index 1 (number of leaves) [5, 11]: 1
- Infection index 2 (number of leaves) [5, 11]: 0
- Infection index 3 (number of leaves) [5, 11]: 0
- Infection index 4 (number of leaves) [5, 11]: 0
- Infection index 0 (number of leaves) [5, 12]: 3
- Infection index 1 (number of leaves) [5, 12]: 2
- Infection index 2 (number of leaves) [5, 12]: 1
- Infection index 3 (number of leaves) [5, 12]: 0
- Infection index 4 (number of leaves) [5, 12]: 0
- phytotoxicity ([5]; tomato (cultivar: Ohgata-fukuju), g ai/10a: (a) 90, (b) 150, (c) 90, (h) 240): not observed
- control effect on tomato powdery mildew (in words) ([5]; whole soil incorporation): excellent control effect

Structure (SMILES): C[Si](C)(C)CC(O)(Cn1cncn1)c1ccc(F)cc1 (stereo not shown) [simeconazole, reference compound]
- phytotoxicity [3]: not observed
